Data set [1] concerns the target T1, cloned human NMDA receptor (NR1/NR2A) channel (Homo sapiens, UniProt Q05586+Q12879).
T1 construct: expressed in transfected cells; host or cells: HEK293
The data set can be described thus: FLIPR Ca++ flux assay in NR1/NR2A expressing HEK cells. The class given is cell-based. On the procedure:
(§1) The NMDA receptor is an ionotropic glutamate receptor that forms a cation-selective channel. Test articles were assessed for their ability to inhibit calcium flux produced by a positive control agonist (100 μM Glutamic acid+20 μM Glycine) in cloned human NMDA receptor (NR1/NR2A) channel (encoded by the GRIN1 and GRIN2A genes) expressing HEK293 cells. A Fluo-8 calcium kit and a Fluorescence Imaging Plate Reader ([…]™) instrument was used to measure calcium flux. The potential antagonist effect of each test article was measured at eight concentrations (0.1, 0.3, 1, 3, 10, 30, 100, 300 μM; n=4 per concentration) after activating NR1/NR2A channel with the positive control agonist (100 μM Glutamic acid+20 μM Glycine).
as §1

In data set [2] the target is T2, PCP binding site of NMDA receptors (Rattus norvegicus, UniProt P35439).
T2 construct: NMDA receptors in rat cerebral cortex cells; tissue CEREP #0124; host or cells: rat cerebral cortex
Briefly: CEREP NMDA PCP site binding study (PCP antagonist radioligand assay #0124). On the procedure:
The specific ligand binding to the receptors is defined as the difference between the total binding and the nonspecific binding determined in the presence of an excess of unlabelled ligand. […] The inhibition constants (Ki) were calculated using the Cheng Prusoff equation (Ki=IC50/(1+(L/KD)), where L=concentration of radioligand in the assay, and KD=affinity of the radioligand for the receptor).

For data set [3], the system named is olfactory bulbectomized (OBX) rat. Briefly: Efficacy study in an animal model of agitation: open field locomotor activity in the OBX rat. As to conditions: OBX rats; single s.c. injection 30 min before test; Compound-1 10 and 30 mg/kg. The class given is in vivo. How it is done:
The objective of this study is to assess the efficacy of Compound-1 in an animal model of agitation: the olfactory bulbectomized (OBX) rat.
(§2) The study design included 4 treatment groups. Rats were assigned to their respective treatments by stratifying into groups based on body weight and arena. The experiment was carried out on a single day.
Forty-four male Sprague Dawley rats (Charles River, Raleigh, N.C.) were used for this study. Rats were single housed and weighed 200-225 g upon receipt. All rats were maintained on a 12 h light-12 h dark cycle with free access to food and water. Husbandry was conducted in accordance with the 2011 Guide for the Care and Use of Laboratory Animals (NRC, 2011).
(§3) Subcutaneous doses were administered via flank injection at a dose volume of 1 mL/kg 30 minutes before behavioral testing. Dose volumes were adjusted for the weight of the animal on the day of the experiment.
(§4) OBX rats and their weight-matched non-surgery controls were allowed to acclimate/recover from the surgical procedure for at least 4 weeks to permit the onset of the behavioral deficit. Rats were handled periodically throughout this acclimation period to prevent excessive aggression. […]
The following parameters were assayed: • 1. […] The behavior was recorded and analyzed by an automated tracking system (Med Associates). […]

Data set [4] shares this test system. Briefly: Efficacy study in an animal model of anxiety: marble burying in the OBX rat. The class given is in vivo. The settings on record: OBX rats; 10 mg/kg single s.c. injection 30 min before 20 min test. How it is done:
Rodents will also bury non-aversive unconditioned objects, such as food pellets and glass marbles; an effect reversible by compounds that have anxiolytic efficacy.
as §2
Thirty-two male Sprague Dawley rats (Charles River, Raleigh, N.C.) were used for this study. Rats were single housed and weighed 200-225 g upon receipt. All rats were maintained on a 12 h light-12 h dark cycle with free access to food and water. Husbandry was conducted in accordance with the 2011 Guide for the Care and Use of Laboratory Animals (NRC, 2011).
as §3, §4
Marbles were considered “buried” if more than ⅔ surface was not visible. The number of uncovered/buried marbles was recorded and photographed by experimenter blind to drug treatment. […]

For the next data set, the system named is Sprague Dawley rat. The data set can be described thus: Open field test of locomotor activity in non-olfactory bulbectomized Sprague Dawley rats. The class given is in vivo. As to conditions: 10 mg/kg s.c. 30 min before 30 min test, vs vehicle.
Source text: Significant changes in locomotor activity may indicate an abnormal response to a drug (e.g., psychomotor retardation, agitation or behavioral sensitization). The Open field test is a commonly used qualitative and quantitative measure of general locomotor activity and willingness to explore in rodents. The objective of this study is to evaluate the effect of Compound-1 on locomotor activity in the (non-olfactory bulbectomized) rat. This study serves as a control experiment for the agitation and anxiety assays described above.
The study design included 2 treatment groups. Rats were randomized into their respective treatments. The experiment was carried out on a single day.
Sixteen male Sprague Dawley rats (Charles River, Raleigh, N.C.) were used for this study. Rats were single housed and weighed 200-225 g upon receipt. All rats were maintained on a 12 h light-12 h dark cycle with free access to food and water. Husbandry was conducted in accordance with the 2011 Guide for the Care and Use of Laboratory Animals (NRC, 2011).
as §3
Rats were allowed to acclimate to the facility for 1 week before behavioral testing. Rats were placed in the Open field arena 30 minutes post-drug administration for a 30 min test. This experiment was run under dim light and low white noise conditions.
The following parameters were assayed:
1. Distance travelled (cm)
3. Stereotypy counts (arbitrary unit)
4. Number of rears (exploratory behavior)
5. Average velocity (cm/s)
The behavior was recorded and analyzed by an automated tracking system (Med Associates). GraphPad Prism 6.0 was used to prepare graphs and to perform data analysis including one-way ANOVA or t-test analysis of locomotor activity where appropriate.

The nature of data set [5]: Repeat dose general toxicology studies of up to six weeks. The settings on record: rats, daily oral gavage up to six weeks. The class given is in vivo. The text has this:
NMDA antagonists are associated with a wide range of serious toxicities, including neurodegeneration. However, the therapeutic index of an NMDA antagonist can vary widely and is correlated with a property referred to as trapping at the drug binding site within the NMDA receptor channel. Higher trapping agents show increased toxicity relative to lower trapping agents and a reduced therapeutic index. Compounds of Formula I, or a Compound of Table 1, preferably Compound-1, have been evaluated in repeat dose general toxicology studies of up to six weeks in duration in both rats and dogs. In both species, Compounds of Formula I, or a Compound of Table 1, preferably Compound-1, were given daily by oral gavage at doses producing plasma concentrations of the drug that would exceed the expected human therapeutic exposures by at least 30-fold. […] This observation is consistent with the concept of the low trapping nature of Compounds of Formula I, or a Compound of Table 1, preferably Compound-1, and an improved therapeutic index over other NMDA antagonists characterized as high trapping agents.

Where a name gives a salt, the structure may show the parent alone. Some results are limits rather than exact numbers.

Usually IC50 stands for the concentration that gives 50% inhibition. Low readings indicate inhibition by little substance, high ones a need for much substance. One may read the Ki as the dissociation constant of the complex between target and ligand, obtained from inhibition or displacement. Higher therefore signals a looser hold on the target.

T1 sequence (Q12879 23-1464, other chains not shown): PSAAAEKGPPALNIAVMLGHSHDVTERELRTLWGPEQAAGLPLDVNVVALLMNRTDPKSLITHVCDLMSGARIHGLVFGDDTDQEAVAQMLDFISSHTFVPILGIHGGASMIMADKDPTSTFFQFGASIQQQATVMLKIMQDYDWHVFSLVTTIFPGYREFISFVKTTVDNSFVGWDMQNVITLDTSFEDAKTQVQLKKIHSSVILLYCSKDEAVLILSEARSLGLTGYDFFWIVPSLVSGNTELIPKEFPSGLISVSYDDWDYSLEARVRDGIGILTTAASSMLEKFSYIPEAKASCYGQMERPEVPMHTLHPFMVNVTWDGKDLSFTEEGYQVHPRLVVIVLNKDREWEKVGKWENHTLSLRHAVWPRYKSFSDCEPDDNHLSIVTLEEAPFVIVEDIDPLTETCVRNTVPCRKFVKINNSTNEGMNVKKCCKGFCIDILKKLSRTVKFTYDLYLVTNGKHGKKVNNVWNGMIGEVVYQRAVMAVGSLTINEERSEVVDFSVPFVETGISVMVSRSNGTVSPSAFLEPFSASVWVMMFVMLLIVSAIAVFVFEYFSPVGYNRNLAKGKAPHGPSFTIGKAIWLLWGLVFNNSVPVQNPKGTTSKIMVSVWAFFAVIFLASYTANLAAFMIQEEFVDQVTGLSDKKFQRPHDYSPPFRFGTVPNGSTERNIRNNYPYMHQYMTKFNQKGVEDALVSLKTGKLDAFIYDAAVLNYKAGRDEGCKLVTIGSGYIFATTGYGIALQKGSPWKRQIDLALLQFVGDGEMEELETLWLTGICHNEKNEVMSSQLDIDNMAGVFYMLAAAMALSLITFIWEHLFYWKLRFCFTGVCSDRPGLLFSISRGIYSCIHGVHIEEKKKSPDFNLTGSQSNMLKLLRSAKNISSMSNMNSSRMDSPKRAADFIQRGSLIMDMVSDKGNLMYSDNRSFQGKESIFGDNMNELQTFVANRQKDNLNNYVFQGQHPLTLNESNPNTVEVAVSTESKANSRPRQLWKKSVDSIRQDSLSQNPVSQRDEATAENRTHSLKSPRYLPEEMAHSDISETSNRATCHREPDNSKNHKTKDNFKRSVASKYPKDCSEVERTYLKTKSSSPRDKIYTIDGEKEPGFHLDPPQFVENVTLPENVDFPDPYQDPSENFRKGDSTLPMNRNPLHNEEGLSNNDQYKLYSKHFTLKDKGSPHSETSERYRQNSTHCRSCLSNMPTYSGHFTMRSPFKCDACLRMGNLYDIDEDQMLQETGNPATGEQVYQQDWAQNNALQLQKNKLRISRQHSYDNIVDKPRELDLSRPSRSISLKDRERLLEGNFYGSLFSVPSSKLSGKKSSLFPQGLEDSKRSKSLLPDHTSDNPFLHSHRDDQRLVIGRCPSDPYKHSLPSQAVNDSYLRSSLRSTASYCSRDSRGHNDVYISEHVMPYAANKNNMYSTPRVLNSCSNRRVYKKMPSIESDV

For the compound `CN1CC[C@@]23CCCCC2[C@@H]1Cc1ccc(-c2ccsn2)cc13` (stereo partly shown), in data set [1], the half-inhibitory concentration (IC50) worked out at 15 µM.
On the same count and under the same terms, the value for `CN1CC[C@@]23CCCCC2[C@@H]1Cc1ccc(-c2nccs2)cc13` (stereo partly shown) was 33 µM.
Same read-out and setting: the value for `CN1CC[C@@]23CCCCC2[C@@H]1Cc1ccc(-c2nnc(N)s2)cc13` (stereo partly shown) was 35.5 µM; that for `CN1CC[C@@]23CCCC[C@@H]2[C@@H]1Cc1ccc(Br)cc13` was 49 µM; that for `CN1CC[C@@]23CCCCC2[C@@H]1Cc1ccc(-c2cscn2)cc13` (stereo partly shown) was 50 µM.
Consider `CN1CC[C@@]23CCCCC2[C@@H]1Cc1ccc(-c2nnc(CO)s2)cc13` (stereo partly shown), for which, in data set [1], the IC50 was 47.5 µM.
On the same count and under the same terms, the value for `CN1CC[C@@]23CCCCC2[C@@H]1Cc1ccc(-c2nnc(C(F)(F)F)s2)cc13` (stereo partly shown) was greater than 500 µM; that for `O=C(O)c1ccc2c(c1)[C@]13CCCC[C@@H]1[C@H](C2)N(CCc1ccccc1)CC3` was greater than 500 µM.
`Cc1nnc(-c2ccc3c(c2)[C@]24CCCCC2[C@H](C3)N(CCc2ccccc2)CC4)s1` (stereo partly shown) had an IC50 in data set [1] greater than 500 µM.
Same read-out and setting: as for `CN1CC[C@@]23CCCCC2[C@@H]1Cc1ccc(-c2nnc(C(C)(C)C)s2)cc13` (stereo partly shown), the figure is greater than 500 µM.
On the same count and under the same terms, the value for `CN1CC[C@@]23CCCCC2[C@@H]1Cc1ccc(-c2nnc(C(C)(C)O)s2)cc13` (stereo partly shown) was greater than 500 µM; that for `Cc1nnc(-c2ccc3c(c2)[C@]24CCCC[C@@H]2[C@H](C3)N(C)CC4)o1` was greater than 500 µM.
For the compound `CN1CC[C@@]23CCCC[C@@H]2[C@@H]1Cc1ccc(C(N)=O)cc13` [Compound-1], the midpoint of inhibition in data set [1], the IC50, lay at 225 µM. This compound also returned an inhibition constant Ki in data set [2] of 7.4 µM. Further, the “mode of binding to the PCP binding site” value in data set [2] (rat cerebral cortex) is recorded as “binds competitively”. Moreover, the “locomotor response (distance travelled) in open field” value in data set [3] is “blocked this hyperlocomotor response”. In addition, in data set [4], the “burying response (marbles buried)” value is given as “blocked this burying response”. Also, in the data set with Sprague Dawley rat, the “effect on average velocity” value is on record as “no effect”, the “effect on jumping behavior” value is reported as “no effect”, the “effect on locomotor activity (distance travelled)” value was “no effect” and the effect on rearing result is recorded as “no effect”. Also, in the data set with Sprague Dawley rat, the effect on stereotypy entry was “no effect”. The clinical changes result in data set [5] (highest doses evaluated) was “increased bone fractures and abnormalities in incisors”. In data set [5] (when clinical signs were present), the neurodegeneration result is on record as “no evidence of neurodegeneration”.
For `CN1CC[C@@]23CCCC[C@@H]2[C@@H]1Cc1ccc(-c2nncs2)cc13` [Compound-2, 2-((4bS,9S)-11-methyl-6,7,8,8a,9,10-hexahydro-5H-9,4b-(epiminoethano)phenanthren-3-yl)-1,3,4-thiadiazole hydrochloride], half-maximal inhibition in data set [1] (IC50) was put at 225 µM.
Same read-out and setting: the value for `Cc1nnc(-c2ccc3c(c2)[C@]24CCCC[C@@H]2[C@H](C3)N(C)CC4)s1` [Compound-3, 2-methyl-5-((4bS,9S)-11-methyl-6,7,8,8a,9,10-hexahydro-5H-9,4b-(epiminoethano)phenanthren-3-yl)-1,3,4-thiadiazole hydrochloride] was 94 µM.
With `COc1ccc2c(c1)[C@]13CCCC[C@@H]1[C@H](C2)N(C)CC3` [Dextromethorphan (DMX), Dextromethorphan, reference compound], in data set [1], the IC50 turned out to be 107 µM. In addition, in data set [3], the “locomotor response (distance travelled) in open field” value is “blocks the locomotor response”. Moreover, the “burying response (marbles buried)” value in data set [4] was “blocked this burying response”.
Compound `CNC1(c2ccccc2Cl)CCCCC1=O` (stereo not shown) [Ketamine, reference compound] returned an IC50 in data set [1] of 57.2 µM.
For `c1ccc(C2(N3CCCCC3)CCCCC2)cc1` [Phencyclidine (PCP), Phencyclidine, reference compound], the 50% inhibitory concentration (IC50) in data set [1] came to 7.5 µM.

These data come from patent US20160243112A1, “TREATMENTS FOR ALZHEIMER'S RELATED DISEASES AND DISORDERS” (Alkermes, Inc., priority 2015, published 2016).
